Results published in patent publication US7312302B2, “Compositions for the detection of enzyme activity in biological samples and methods of use thereof” (Oncolmmunin, Inc., priority 1997, dated 2007).
Blank lines part the entries; values can stand above or below the molecule they belong to. Non-standard residues stand in square brackets, D forms with d. Residues, ends and D or L forms follow the SMILES beside them. No end group written: not given here. *: point of attachment. F1 = 5-carboxytetramethylrhodamine (donor fluorophore); code B = not defined here; code J = not defined here; Nle = CCCC[C@H](N)C(=O)O; Cbz = O=C(OCc1ccccc1)*; F^2 = not defined here; CH2F = FC*

Columns and labels:
[1] = target: T1, CPP32 protease (Homo sapiens, UniProt P42574); assay: Flow cytometric analysis of intracellular CPP32 protease activity in anti-Fas activated Jurkat cells; format: cell-based
T1 construct: served as a direct measure of the intracellular CPP32 protease activity; endogenous in cells
T1 sequence (P42574 29-277): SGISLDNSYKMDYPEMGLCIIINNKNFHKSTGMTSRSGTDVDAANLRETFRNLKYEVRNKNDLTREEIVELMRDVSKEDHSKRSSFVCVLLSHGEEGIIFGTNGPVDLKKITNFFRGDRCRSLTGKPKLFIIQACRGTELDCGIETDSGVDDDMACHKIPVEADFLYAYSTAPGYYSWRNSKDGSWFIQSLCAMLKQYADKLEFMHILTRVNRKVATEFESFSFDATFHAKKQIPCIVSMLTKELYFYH
Protocol: The concentration of substrates used in flow cytometric analysis was 10 M in RPMI1640 medium containing 4 to 10% fetal calf serum. Cell densities during incubation with the chosen substrates ranged from 50,000 cells per ml to 4,000,000 per ml. Incubation times were from 30 min. to 3 hours at 37° C. and incubation volumes were 50 μL to 2 ml. After incubation with substrate for 30 to 60 min. cell suspensions were diluted 10-fold with ice cold Hank's Buffered Saline Solution (HBSS). This filtered cell suspension was then subjected to flow cytometric analysis using a 488 nm excitation source. Becton Dickenson, Inc.'s flow cytometer, FacSort, was used in the flow cytometric analysis. […]
Control cells without substrate incubation and the sample with the greatest expected fluorescence signals were used to set the instrument detector parameters. For example after 15 minutes incubation of Jurkat cells with substrate compound #11 Fm-CGD2D: Fm—K[F1]DBJGDEVDGIDGJPK[F1]GY (SEQ ID NO: 202, where F1 was carboxytetramethylrhodamine; Fm was Fmoc, K[F1] was F1 covalently attached through the epsilon amino group of lysine (K), Nlu was norleucine, B was aminoisobutyric acid, and J was epsilon-aminocaproic acid) an increase of about 10 channels indicating cellular uptake of the substrates was measured. […] As much as a ten-fold increase in fluorescence intensity was observed. […]

[2] = test system: Jurkat cells, HL-60 cells, human lymphocyte lines, A1.1 cells, murine primary thymocytes; assay: Cellular uptake of substrates by fluorescence microscopy, flow cytometry, HPLC; format: cell-based; conditions: viable cells
Protocol: The compounds listed in Table 6 were synthesized and assayed for cellular uptake. Cellular internalization of the substrates was tested using Jurkat cells (a human acute T cell leukemic line), HL-60 cells (a human promyelocytic leukemic line), human lymphocyte lines, A1.1 cells (a murine T-cell line), and murine primary thymocytes. Procedures used in determining substrate uptake by viable cells are provided in Example 6 (for the HPLC procedures), in Example 2 (for the fluorescence microscopic analysis), and in Example 3 (for the flow cytometric analysis) a summary of these analyses with respect to cellular uptake of substrates is presented in this example.
The elastase substrate, Fm—K[F1]DAIPNluSIPK[F1]GY (SEQ ID NO:185), (where F1 was carboxytetramethylrhodamine, Fm was Fmoc, K[F1] was F1 covalently attached through the epsilon amino group of lysine (K), and Fm—K is the Fmoc group covalently attached at the alpha amino group of the amino terminal lysine residue) was used with HL-60 cells. Cells were incubated with various concentrations of elastase substrate ranging from 10 nM to 10 μM for 5 minutes to 60 minutes. Then the cells were diluted 5-fold with RPMI 1640 medium containing 5% serum or with phosphate buffered saline. The samples were centrifuged and washed once more with 1 ml of washing solution. After centrifugation and removal of the washing solution, cell pellets were loosened with about 25 ul of medium and these cells were transferred to a glass capillary. Capillary tubes were then placed on a glass microscope slide and examined under a fluorescence microscope using standard rhodamine filters.
For apoptosis-related protease activity determination, 10 μM concentration of the compounds listed in Example 8 (compound structures 2 through 13) were incubated with cells for 30 min. to 3 hours. The cells were then washed similarly twice. Using glass capillary tubes, the washed cells were transferred and examined under a fluorescence microscope.
The concentration of substrates used in flow cytometric analysis was 10 M in RPMI1640 medium containing 4 to 10% fetal calf serum. Cell densities during incubation with the chosen substrates ranged from 50,000 cells per ml to 4,000,000 per ml. Incubation times were from 30 min. to 3 hours at 37° C. and incubation volumes were 50 μL to 2 ml. After incubation with substrate for 30 to 60 min. cell suspensions were diluted 10-fold with ice cold Hank's Buffered Saline Solution (HBSS). This filtered cell suspension was then subjected to flow cytometric analysis using a 488 nm excitation source. Becton Dickenson, Inc.'s flow cytometer, FacSort, was used in the flow cytometric analysis. Typically, 10,000 to 30,000 events per sample were collected.

[3] = test system: thymocytes; conditions: in vitro; cited from earlier work
[4] = test system: intracellular caspases; assay: Effect of ZVAD(OMe)FMK on in situ caspase activation in dexamethasone-treated thymocytes, flow cytometry at 6 h; format: cell-based, mouse; design: effect when added before or simultaneously with dexamethasone: dose or concentration left out as unconfirmed
Protocol: Thymocytes were treated with 0.1 mM dexamethasone in vitro and analyzed after a total of 6 h incubation. The apoptosis inhibitor ZVAD(OMe)FMK was added at various times of incubation as indicated, and the caspase activities were assessed by flow cytometry. The results are expressed as ratios of mean fluorescence channel number comparing the activity in the presence of 50 mM ZVAD(OMe)FMK with the uninhibited sample for that substrate.
Single cell suspensions of thymocytes were cultured in RPMI 1640 with 10% FCS at a concentration of 10 6 cells/ml. Dexamethasone (final concentration, 0.1 mM) and ZVAD (OMe)FMK (final concentration, 50 mM) were added at the indicated times from stock solutions in DMSO (100 mM for dexamethasone and 200 mM for ZVAD[OMe]FMK). […] After washing in saline, cells were analyzed by flow cytometry. […] The fluorescence intensity was then monitored for 30-60 min. The initial velocity was calculated from the linear portion of the fluorescence increase. […]
The ability to detect intracellular caspase activities allowed us to study the pharmacological target of the potent apoptosis inhibitor ZVAD(OMe)FMK. […] Activity was assessed by the mean fluorescence channel number of PInegative cells. […] However, when addition of this inhibitor was delayed, the intracellular activity of all caspases detected rose, with no significant selective depletion of activity. […]

[5] = intravenously injected antiFas; ischemia-reperfusion stroke model; cited from earlier work
[6] = test system: elastase; assay: Elastase digestion of fluorogenic protease indicator, HPLC of cleavage products; format: biochemical; conditions: 1 unit of elastase, about 30 minutes, 37° C., pH 8.9
Protocol: Approximately 1 microgram of protease indicator, having the formula F^1-Asp-Ala-Ile-Pro-Nle-Ser-Ile-Pro-Cys-F^2 (SEQ ID No: 184) where F^1 is a donor fluorophore (5′-carboxytetramethylrhodamine (5-TMR)) linked to aspartic acid via the alpha amino group and F^2 is an acceptor fluorophore (rhodamine X acetamide (R492)) linked via the sulfhydryl group of the cysteine was dissolved in a buffer consisting of 50 mM sodium phosphate, 1 mM EDTA at pH 8.9. To this solution was added 1 unit of elastase. The solution was analyzed by HPLC before and about 30 minutes after the addition of elastase. The digestion was carried out at 37° C. The HPLC separated components were monitored at a wavelength of 550 nm which allowed detection of both the 5-TMR fluorophore the R492 fluorophore and at 580 nm which allowed detection of the R492 fluorophore.
In addition, the two predominant peaks in FIGS. 1(b) and 1(c) indicate that the digestion occurred primarily at a single site.

[7] = test system: elastase; assay: Emission spectrum change of indicator after addition of elastase (spectrofluorometer); format: biochemical; conditions: 37° C., slit widths 4 nm
Protocol: Changes in the emission spectrum of the fluorogenic protease indicator after the addition of an elastase protease was monitored using an SLM spectrofluorometer model 48000 with slit widths set at 4 nm on both the excitation and emission sides. All measurements were carried out at 37° C.
Spectra in FIG. 2 show emission of the fluorogenic protease indicator (a) before and (b) after addition of elastase, while the time dependent increase of the indicator's donor fluorophore emission intensity, after addition of elastase, is plotted in FIG. 3. […] The changes in intensity between treated and untreated indicators are, to some degree, a function of slit widths used, since they represent the signal integrated across the particular slit width. Thus, if wider slit widths were used (e.g. 8 or 16 nm slits) an even greater signal would be provided in response to digestion.

Molecule: Fm-K[F1]DBJGDEVDGIDGJPK[F1]GY (K(F1)D[code B][code J]GDEVDGIDG[code J]PK(F1)GY; not fully specified (N-terminus); printed as Fm-K[F1]DBJGDEVDGIDGJPK[F1]GY; reading uncertain) [Compound 11]
increase in fluorescence intensity in activated cells ([1]; 1 μg/ml anti-Fas antibody CH11 for 1 to 6 hours): ten-fold | increase in channels indicating cellular uptake ([1]; 15 minutes incubation): about 10 channels | cellular uptake (Table 6) [2]: efficient cellular uptake

Molecule: COC(=O)C[C@H](NC(=O)[C@H](C)NC(=O)[C@@H](NC(=O)OCc1ccccc1)C(C)C)C(=O)CF [ZVAD(OMe)FMK, carbobenzoxyvalylalanylaspartyl(bmethyl ester)fluoromethyl ketone] (Cbz-Val-Ala-Asp(OMe)-CH2F)
block of dexamethasone-induced thymocyte apoptosis [3]: specifically blocks | effect of pretreatment followed by washing before dexamethasone addition [4]: minimal inhibition | effect when added before or simultaneously with dexamethasone [4]: blocks apoptosis | protection of mice [5]: protect mice from the lethal effects

degree of cleavage by elastase (HPLC) [6]: complete digestion | increase in fluorescence at 589 nm after treatment with elastase [7]: > 10 fold | increase in fluorescence within the first 1000 seconds of exposure to the protease [7]: > 5 fold
Molecule: F^1-Asp-Ala-Ile-Pro-Nle-Ser-Ile-Pro-Cys-F^2 (DAIP[Nle]SIPC-{F^2}; not fully specified (residue 9, N-terminus); printed as F1-Asp-Ala-Ile-Pro-Nle-Ser-Ile-Pro-Cys-F2; reading uncertain) [D-NorFES-A, F1 5'-carboxytetramethylrhodamine donor, F2 rhodamine X acetamide acceptor]
